This note sets out measurements from PubChem BioAssay AID1259408 (Genetic Toxicology Data Bank (GENE-TOX), 2018).

The data set deals with GENE-TOX genotoxicity assays, various organisms and cells. Kind of data set: GENE-TOX mutagenicity studies. The conditions noted are these: for call: Assay Type: In vivo carcinogenicity studies.
Setting [1] is: Species/Cell Type: Nonhuman, Assay Code: CCG+, Evaluation Type: Evaluation A (Pre-1980).
Where [2] appears, read: Species/Cell Type: Salmonella typhimurium (one or more of the five standard strains: TA98, TA100, TA1535, TA1537, and TA1538), Assay Type: Histidine reverse gene mutation, Ames assay, Assay Code: SALT, Evaluation Type: Evaluation A (Pre-1980).
Where [3] appears, read: Species/Cell Type: Mouse, Sex: Male, Assay Type: Sperm morphology, Assay Code: SPI-, Evaluation Type: Evaluation A (Pre-1980).
Where [4] appears, read: Species/Cell Type: Salmonella typhimurium, Assay Type: Forward and reverse gene mutation, host-mediated assay, Assay Code: HMA+, Evaluation Type: Evaluation A (Pre-1980).
Where [5] appears, read: Species/Cell Type: Syrian hamster embryo (SHE) cells, Assay Type: Cell transformation, clonal assay, Assay Code: CTC+, Evaluation Type: Evaluation A (Pre-1980).
Setting [6] is: Species/Cell Type: Salmonella typhimurium (one or more of the five standard strains: TA98, TA100, TA1535, TA1537, and TA1538), Assay Type: Histidine reverse gene mutation, Ames assay, Assay Code: SAL+, Evaluation Type: Evaluation A (Pre-1980).
Where [7] appears, read: Species/Cell Type: Nonhuman, Assay Type: Sister-chromatid exchange (SCE) in vitro, Assay Code: SC2+D, Dose Response: With dose response, Evaluation Type: Evaluation B (Post-1980).
Setting [8] is: Species/Cell Type: Escherichia coli polA (W3119 vs P3478), Assay Type: Rec-assay, DNA effects (bacterial DNA repair), Assay Code: RE1+, Evaluation Type: Evaluation A (Pre-1980).

Active and inactive are the calls of the source. No rule for the calls is given here.

As for `CCN(Cc1cccc(S(=O)(=O)[O-])c1)c1ccc(C(=C2C=CC(=[N+](C)C)C=C2)c2ccc(N(CC)Cc3cccc(S(=O)(=O)O)c3)cc2)cc1`, the mutagenic call is “no conclusion” (Species/Cell Type: Bacillus subtilis (H17 vs M45), Assay Type: Rec-assay, spot test, DNA effects (bacterial DNA repair), Assay Code: REWT, Evaluation Type: Evaluation A (Pre-1980)); “no conclusion” (Species/Cell Type: Bacillus subtilis (H17 vs M45T), Assay Type: Rec-assay, spot test, DNA effects (bacterial DNA repair), Assay Code: REXT, Evaluation Type: Evaluation A (Pre-1980)); “inactive; negative” (Species/Cell Type: Salmonella typhimurium (one or more of the five standard strains: TA98, TA100, TA1535, TA1537, and TA1538), Assay Type: Histidine reverse gene mutation, Ames assay, Assay Code: SAL-, Evaluation Type: Evaluation A (Pre-1980)). Moreover, under setting [1], the call is “active; positive”.

Regarding `CC1CN(N=O)CC(C)N1C(=O)c1ccccc1` (stereo not given), the mutagenic call under setting [2] is recorded as “no conclusion”.

In the case of `Nc1ccc2ccccc2c1`, the mutagenic call (Species/Cell Type: Chinese hamster ovary (CHO) cells, Assay Type: Forward gene mutation at the HPRT locus, Assay Code: CHO+, Evaluation Type: Evaluation B (Post-1980)) was “active; positive”; the mutagenic call (Species/Cell Type: Drosophila melanogaster, Assay Type: Sex-linked recessive lethal gene mutation, Assay Code: SRLT, Evaluation Type: Evaluation A (Pre-1980)) is “no conclusion”; the mutagenic call (Species/Cell Type: Escherichia coli polA (W3110 vs P3478), Assay Type: Rec-assay, DNA effects (bacterial DNA repair), Assay Code: RE2+, Evaluation Type: Evaluation A (Pre-1980)) was “active; positive”; the mutagenic call (Species/Cell Type: Escherichia coli polA (W3119 vs P3478), Assay Type: Rec-assay, DNA effects (bacterial DNA repair), Assay Code: RE1-, Evaluation Type: Evaluation A (Pre-1980)) was “inactive; negative”; the mutagenic call (Species/Cell Type: Escherichia coli polA (W3119 vs P3478), Assay Type: Rec-assay, DNA effects (bacterial DNA repair), Assay Code: RE1T, Evaluation Type: Evaluation A (Pre-1980)) is on record as “no conclusion”; the mutagenic call (Species/Cell Type: Fischer rat embryo (RLV/1706) cells, Assay Type: Cell transformation, viral enhanced, Assay Code: CTR+, Evaluation Type: Evaluation A (Pre-1980)) is “active; positive”. Moreover, the mutagenic call is, setting by setting: (Species/Cell Type: Mammalian polychromatic erythrocytes, Assay Type: Micronucleus test, chromosome aberrations, Assay Code: MNT+, Evaluation Type: Evaluation A (Pre-1980)) “active; positive”; (Species/Cell Type: Mouse (BALB/c-3T3) cells, Assay Type: Cell transformation, Assay Code: CTB-, Evaluation Type: Evaluation A (Pre-1980)) “inactive; negative”; (Species/Cell Type: Mouse embryo (AKR/ME) cells, Assay Type: Cell transformation, Assay Code: CTK+, Evaluation Type: Evaluation A (Pre-1980)) “active; positive”; under setting [3], “inactive; negative”; (Species/Cell Type: Neurospora crassa, Assay Type: Forward gene mutation, Assay Code: NEF+, Evaluation Type: Evaluation A (Pre-1980)) “active; positive”; (Species/Cell Type: Nonhuman, Assay Type: Sister-chromatid exchange (SCE) in vitro, Assay Code: SC2+D*, Activation: With metabolic activation, Dose Response: With dose response, Evaluation Type: Evaluation B (Post-1980)) “active; positive”. In addition, the mutagenic call (Species/Cell Type: Nonhuman, Assay Type: Sister-chromatid exchange (SCE) in vivo, Assay Code: SC3+, Evaluation Type: Evaluation B (Post-1980)) was “active; positive”; the mutagenic call (Species/Cell Type: Saccharomyces cerevisiae, Assay Type: Forward gene mutation, Assay Code: YEF+*, Activation: With metabolic activation, Evaluation Type: Evaluation A (Pre-1980)) was “active; positive”; the mutagenic call (Species/Cell Type: Saccharomyces cerevisiae, Assay Type: Mitotic recombination or gene conversion, Assay Code: YEC+, Evaluation Type: Evaluation A (Pre-1980)) was “active; positive”; the mutagenic call (Species/Cell Type: Saccharomyces cerevisiae, Assay Type: Mitotic recombination or gene conversion, Assay Code: YEH+*, Activation: With metabolic activation, Evaluation Type: Evaluation A (Pre-1980)) is “active; positive”; the mutagenic call (Species/Cell Type: Saccharomyces cerevisiae, Assay Type: Mitotic recombination or gene conversion, Assay Code: YEH-, Evaluation Type: Evaluation A (Pre-1980)) is “inactive; negative”; the mutagenic call (Species/Cell Type: Salmonella typhimurium (one or more of the five standard strains: TA98, TA100, TA1535, TA1537, and TA1538), Assay Type: Histidine reverse gene mutation, Ames assay, Assay Code: SAL+*, Activation: With metabolic activation, Evaluation Type: Evaluation A (Pre-1980)) was “active; positive”. In addition, the mutagenic call is, setting by setting: under setting [4], “active; positive”; (Species/Cell Type: Syrian hamster embryo (SA7/SHE) cells, Assay Type: Cell transformation, viral enhanced, Assay Code: CT7+, Evaluation Type: Evaluation A (Pre-1980)) “active; positive”; under setting [5], “active; positive”; (Species/Cell Type: Tradescantia species, Assay Type: Gene mutation, Assay Code: TRM+D, Dose Response: With dose response, Evaluation Type: Evaluation A (Pre-1980)) “active; positive”. For the same compound, the call under setting [1] is “active; positive”.

On to `CC(C)CN(N=O)/C(N)=N/[N+](=O)[O-]`, for which the mutagenic call (Species/Cell Type: Arabidopsis species, Assay Type: Gene mutation, Assay Code: ARM+, Evaluation Type: Evaluation A (Pre-1980)) is “active; positive” and the mutagenic call under setting [6] is “active; positive”.

Turning to `CC(=O)C=O`, under setting [7], the mutagenic call is “active; positive”.

As for `O=S(O)CO`, for the setting “Species/Cell Type: Drosophila melanogaster, Sex: Male, Assay Type: Heritable translocation test, chromosome aberrations, Assay Code: DHTT, Evaluation Type: Evaluation A (Pre-1980)”, the mutagenic call is given as “no conclusion”.

`[Cl][Ni][Cl]`: the mutagenic call (Species/Cell Type: Bacillus subtilis (H17 vs M45), Assay Type: Rec-assay, spot test, DNA effects (bacterial DNA repair), Assay Code: REW-, Evaluation Type: Evaluation A (Pre-1980)) was “inactive; negative”; the mutagenic call (Species/Cell Type: Escherichia coli WP2, Assay Type: Tryptophan reverse gene mutation, Assay Code: WP2-, Evaluation Type: Evaluation A (Pre-1980)) was “inactive; negative”; the mutagenic call (Species/Cell Type: Human lymphocytes, Assay Type: Sister-chromatid exchange (SCE) in vitro, Assay Code: SCL+, Evaluation Type: Evaluation B (Post-1980)) was “active; positive”; the mutagenic call (Species/Cell Type: Human, Assay Type: Sister-chromatid exchange (SCE) in vitro, Assay Code: SC1+, Evaluation Type: Evaluation B (Post-1980)) is “active; positive”; the mutagenic call (Species/Cell Type: Nonhuman, Assay Type: Sister-chromatid exchange (SCE) in vitro, Assay Code: SC2+, Evaluation Type: Evaluation B (Post-1980)) is “active; positive”; the mutagenic call (Species/Cell Type: Salmonella typhimurium, Serratia marcesens, Assay Type: Forward and reverse gene mutation, host-mediated assay, Assay Code: HM2T, Evaluation Type: Evaluation A (Pre-1980)) is given as “no conclusion”.

As to `CCCCNC(=O)N(CCCC)c1nc(-c2ccccc2)cs1`, under setting [4], the mutagenic call is “active; positive”.

As to `CCCCOCCOCCOCc1cc2c(cc1CCC)OCO2`, the call (Species/Cell Type: Nonhuman, Assay Code: CCG-L, Evaluation Type: Evaluation A (Pre-1980)) is “inactive; negative”.

Take `O=[N+]([O-])c1ccc2ccc3cc4ccccc4c4ccc1c2c34`: for the setting “Species/Cell Type: Chinese hamster ovary (CHO) cells, Assay Type: Forward gene mutation at the HPRT locus, Assay Code: CHO+*, Activation: With metabolic activation, Evaluation Type: Evaluation B (Post-1980)”, the mutagenic call is “active; positive”.

As to `O=C(OCC1CCN2CCC(OC(=O)c3ccc([N+](=O)[O-])cc3)C12)c1ccc([N+](=O)[O-])cc1` (stereo not given), the mutagenic call (Species/Cell Type: Allium cepa, Assay Type: Chromosome aberrations, Assay Code: ALC-, Evaluation Type: Evaluation A (Pre-1980)) is “inactive; negative”.

As to `O=[N+]([O-])c1ccc2c(c1)Cc1ccccc1-2`, the mutagenic call reads like this: (Species/Cell Type: Escherichia coli polA (W3110 vs P3478), Assay Type: Rec-assay, DNA effects (bacterial DNA repair), Assay Code: RE2T, Evaluation Type: Evaluation A (Pre-1980)) “no conclusion”; under setting [8], “active; positive”; under setting [3], “inactive; negative”; (Species/Cell Type: Neurospora crassa, Assay Type: Aneuploidy, chromosome aberrations, Assay Code: NEN-, Evaluation Type: Evaluation A (Pre-1980)) “inactive; negative”; under setting [7], “active; positive”; (Species/Cell Type: Nonhuman, Assay Type: Sister-chromatid exchange (SCE) in vivo, Assay Code: SC3+D, Dose Response: With dose response, Evaluation Type: Evaluation B (Post-1980)) “active; positive”. Also, the mutagenic call was “active; positive” (Species/Cell Type: Saccharomyces cerevisiae, Assay Type: Mitotic recombination or gene conversion, Assay Code: YEH+, Evaluation Type: Evaluation A (Pre-1980)); “active; positive” under setting [6]; “active; positive” under setting [4]; “active; positive” under setting [5].

As for `Cn1cncc1[N+](=O)[O-]`, the mutagenic call under setting [6] was “active; positive”.

Consider `C=Cc1cccc(C)c1`, for which the mutagenic call is “active; positive” (Species/Cell Type: Human lymphocytes, Assay Type: Sister-chromatid exchange (SCE) in vitro, Assay Code: SCL+D, Dose Response: With dose response, Evaluation Type: Evaluation B (Post-1980)) and “active; positive” (Species/Cell Type: Human, Assay Type: Sister-chromatid exchange (SCE) in vitro, Assay Code: SC1+D, Dose Response: With dose response, Evaluation Type: Evaluation B (Post-1980)).

With `CCOCC`, the mutagenic call (Species/Cell Type: Aspergillus nidulans, Assay Type: Forward gene mutation, Assay Code: ASF-, Evaluation Type: Evaluation A (Pre-1980)) is “inactive; negative”; the mutagenic call under setting [8] is “active; positive”; the mutagenic call under setting [3] was “inactive; negative”; the mutagenic call (Species/Cell Type: Nonhuman, Assay Type: Sister-chromatid exchange (SCE) in vitro, Assay Code: SC2T, Evaluation Type: Evaluation B (Post-1980)) was “no conclusion”; the mutagenic call under setting [2] is on record as “no conclusion”.
